Test results: paper PMC7735731, “Application of Magnetic Core–Shell Imprinted Nanoconjugates for the Analysis of Hordenine in Human Plasma-Preliminary Data on Pharmacokinetic Study after Oral Administration” (Journal of Agricultural and Food Chemistry, 2020)
≈ marks a conversion by molar mass, not a printed value. Where “and” joins values, the source holds several entries; their conditions need not be identical. Equal values may be shown once.

Legend:
[1] = Pharmacokinetic profile of hordenine in plasma after alcohol free beer consumption by one volunteer; assay type: in vivo, human
From the text: It is known that hordenine levels in plasma after beer consumption are low.[10] Thus, to verify the newly proposed analytical method as well as to reveal its applicability, the evaluation of hordenine pharmacokinetics profiles after beer consumption was also investigated. The results are presented in Supporting Information Section S2.
Determination of pharmacokinetic profile after beer consumption
In order to reveal the applicability of new analytical method, the comparative studies of hordenine pharmacokinetic after alcohol free beer consumption was performed. Firstly we confirmed the presence of hordenine in the beverage since no data on hordenine content in alcohol free beer exist. Then the volunteer consumed 0.5 L of beer within 5 min. The blood was collected 10 min., 20 min., 30 min., 45 min., 1 h, 2 h, 4 h, and 6 h after the beginning of beer […]
Regarding alcohol free beer the hordenine content was 1.3 mg/L for Karmi Classic, 1.2 mg/L for Żywiec, 2.5 mg/L for Heineken zero, 2.3 mg/L for Lech. Thus, for further experiments Heineken zero was selected. […]
distribution Vz/F 1810 L. We confirmed the results of Sommer et al. (2020) that the Cmax is too low to directly interact with D2 receptors. One of the explanation of the lower Cl/F and Vz/F than obtained for supplement can be higher bioavailability of hordenine form beer than supplements and/or non linear pharmacokinetics. Thus, further study are needed.
Figure A. Mean plasma concentration-time profile of hordenine after beer consumption by one

[2] = four volunteers, 1 L of beer with hordenine content 6.30 ± 0.19 mg/L; cited from earlier work
[3] = Pharmacokinetic study in healthy volunteers after oral administration of hordenine-rich dietary supplement (plasma, mag-MIP d-SPE, LC-MS/MS); assay type: in vivo, human
Method: Quantitative analysis was performed using an Agilent 1260 Infinity system (Agilent Technologies, Santa Clara, CA, United States, https://www.agilent.com), equipped with a degasser, an autosampler, and a binary pump coupled to a QTRAP 4000 hybrid triple quadrupole/linear ion trap mass spectrometer (AB Sciex, Framingham, MA, United States, https://sciex.com). The turbo ion spray source was operated in positive mode. The curtain gas, ion source gas 1, ion source gas 2, and collision gas (all high-purity nitrogen) were set at 345, 207, 276 kPa, and “high” instrument units (4.6 × 10^–5 Torr), respectively. The ion spray voltage and source temperature were 5000 V and 600 °C, respectively. The target compounds were analyzed in multiple reaction monitoring mode. The quantitative multiple reaction monitoring transitions, declustering potential (DP) and collision energy (CE) for hordenine and hordenine-d6 were (m/z) 166 > 121 (DP = 61 V, CE = 21 V) and 172 > 121 (DP = 66 V, CE = 19 V), respectively. […] The column was maintained at 40 °C at the flow rate of 0.5 mL/min. The mobile phases consisted of 20 mM aqueous ammonium acetate as eluent A and acetonitrile with 0.2% formic acid as eluent B. The gradient (% B) was as follows: 0 min 10%, 1 min 10%, 3 min 95%, and 5 min 95%. The reequilibration of the column to the initial conditions lasted 1.5 min.
For the optimization of the d-SPE process, a mass of 5 mg of mag-MIP was transferred to an Eppendorf tube together with a volume of 300 μL of untreated plasma sample (or in the optimization process: sample diluted with water or sample pretreated with methanol (1:1, v/v)). A sample of plasma pretreated with methanol was centrifuged (10 000g, 5 min) prior to loading to mag-MIP together with 30 μL of IS (c = 50 μg/L). Next, the tube was put on the vortex to provide contact time with the sorbent for 5 min (in the optimization of loading time, the step lasted 5, 15, 30, or 60 min). Then, the supernatant, separated from the sorbent by an external magnetic field, was discarded and the washing step was carried out by applying water, 300 μL of ultrapure water for 0.5 min on the vortex (or in the optimization process, methanol–water 85:15 v/v). The supernatant was removed in the same manner as described above. Finally, the elution took place by adding 500 μL of 5% ammonium hydroxide in methanol. The elution time was set for 5 min (in the optimization process, the step lasted 5, 15, 30, or 60 min). The elution fraction was separated from the sorbent by the application of an external magnetic field. In each optimized step, the recoveries of hordenine were analyzed. The eluate was evaporated to dryness (40 °C, 5 min), reconstituted in a volume of 70 μL of 20% aqueous methanol, and an aliquot of 10 μL was injected into the LC–MS/MS. Each experiment was performed in triplicate. The recovery was calculated by comparing the mean area response of plasma sample spiked before and after extraction.
Three healthy volunteers (men, aged 25–30 years) were enrolled in this study after obtaining written informed consent. All participants were nonsmokers with body weight no less than 50 kg and body mass index 25.7 ± 3.7 kg/m^2. Their body weights were 80 kg (two volunteers) and 105 kg (one volunteer). Subjects neither consumed alcohol nor received any medication for 2 weeks prior to the start of the study. Hordenine was administered orally in the morning with a dose of 100 mg (in starch capsules) after overnight fasting. Plasma samples of approximately 2 mL were collected (in vials containing di-potassium ethylene diaminetetraacetic acid as an anticoagulant) before and at 20, 30, 45, 60, 75, 90, 120, 180, and 240 min post-dose. After collection, plasma samples were centrifuged at 2000g for 15 min at room temperature and plasma samples were analyzed. […]

[4] = design: method as in PMID 25880244; conditions: rats, cited from earlier work
[5] = Simple allometric scaling of rat t1/2 to human; conditions: from rat t1/2 4.6 ± 1.6 h with t1/2(Human) ∼ 4t1/2(Rat)
From the text: However, further studies are required.

[6] = weak base; source not given; cited from earlier work
[7] = cited from earlier work
[8] = Stability of the analyte in the biological matrix (human plasma) and the extract; assay type: in vitro ADME; conditions: for stability in extract in the autosampler: 48 h, 4 °C; for stability after short-term storage at room temperature / stability after freeze–thaw cycles: human plasma; for stability after short-term storage at room temperature: 4 h, 21 ± 2 °C; for stability after freeze–thaw cycles: three cycles at −20 °C storage, 25 °C thawing
Method: Selectivity was evaluated using six blank plasma samples, which were evaluated for interference from the matrix components in the determination of hordenine. The accuracy and precision of the method were determined within runs (n = 5) and between runs (n = 15, five replicate samples on three separate runs) using quality control (QC) samples (0.1, 25, and 40 μg/L). Accuracy was expressed as percent relative error of the spiked nominal value, whereas precision was expressed as relative standard deviation (RSD). The linearity range was set between 0.05 and 50 μg/L. Eight point calibration lines (n = 3) were constructed by plotting peak area ratios of each targeted analyte to an area of IS versus the nominal concentration of the analyte. LLOQ was selected to give the signal at least five times higher than the signal of blank samples and satisfactory results of accuracy and precision. LLOQ, QCs, and calibration standards were prepared on blank plasma. The matrix effect was evaluated by analyzing low and high QCs using plasma from six different lots and included hemolyzed and hyperlipidemic plasma samples. Matrix factor (MF) was determined by calculating the ratio of the peak area in the presence of matrix (blank plasma spiked with the analyte post extraction) to the peak area in the absence of matrix (pure solution of the analyte). Additionally, the coefficient of variation (CV) of the IS-normalized MF (expressed as the MF of analyte divided by the MF of IS) was presented. All stability studies were performed at low and high QCs. The autosampler stability was determined after 48 h of extract storage in an autosampler (4 ± 0.5 °C). The freeze and thaw stabilities were determined in a process of three freeze–thaw cycles at −20 ± 2 °C storage temperature and 25 ± 0.5 °C thawing temperature, at least 12 h after freezing. The short-term stability was determined after 4 h of storage at room temperature, 21 ± 2 °C. Carryover was studied by injecting blank plasma sample after calibration standard at 40 μg/L

dopamine D2 receptor = target: dopamine D2 receptor; design: method as in PMID 28281694; conditions: cited from earlier work
[9] = human plasma, single oral dose 100 mg hordenine, three healthy volunteers, mean
[10] = male, human, plasma, single oral dose 100 mg hordenine, three healthy volunteers, mean

SMILES: CN(C)CCc1ccc(O)cc1 [hordenine, 4-(2-dimethylaminoethyl)phenol]
- apparent oral clearance (Cl/F) ([1]; 0.5 L alcohol free beer (hordenine 2.5 mg/L)): 2320 L/h
- time to reach Cmax ([1]; 0.5 L alcohol free beer, from the beginning of beer consumption): 25 min
- Cmax ([1]; human, plasma, oral, 1.25 mg, 0.5 L alcohol free beer (Heineken zero, hordenine 2.5 mg/L)): 0.4 ng/mL
- Vd/F ([1]; human, plasma, oral, 1.25 mg, 0.5 L alcohol free beer (hordenine 2.5 mg/L), read-out: volume of distribution Vz/F): 1810 L
- maximum plasma concentrations [2]: 1.98 to 2.85 µg/L
- AUCt [3, 9]: 1390 µg·min/L
- AUCt norm (body weight normalized) [3, 9]: 16.5 µg·min/L/kg
- AUC∞ [3, 9]: 1440 µg·min/L
- AUC∞ norm (body weight normalized) [3, 9]: 17.1 µg·min/L/kg
- concentration at 1 h ([3]; male, human, in vivo, plasma collected at 1 h after administration of 100 mg of hordenine, read-out: calculated concentration in test plasma): 8.7 ng/mL
- Cmax [3, 10]: 16.4 ng/mL
- MRT inf [3, 10]: 1.88 h
- MRT last [3, 10]: 1.7 h
- Tmax [3, 10]: 1.08 h
- CL/F ([3]; male, human, plasma, single oral dose 100 mg hordenine, three healthy volunteers, mean, read-out: Cl/Fnorm (body weight normalized) (converted)): 850 mL/min/kg
- Vd/F ([3]; male, human, plasma, single oral dose 100 mg hordenine, three healthy volunteers, mean, read-out: Vz/F (apparent distribution volume)): 6000 L
- Vd/F ([3]; male, human, plasma, single oral dose 100 mg hordenine, three healthy volunteers, mean, read-out: Vz/Fnorm (body weight normalized)): 66 L/kg
- half-life ([3]; male, human, plasma, single oral dose 100 mg hordenine, three healthy volunteers, mean, read-out: t1/2 (terminal half-life)): 0.9 h
- Cl/F (apparent plasma clearance) ([3]; single oral dose 100 mg hordenine, three healthy volunteers, mean): 4700 ± 1700 L/h and 4700 L/h
- t1/2 (hordenine elimination) ([4]; oral administration, dose of 15 mg/kg): 4.6 ± 1.6 h
- bioavailability [4]: 66.2%
- estimated t1/2(Human) by allometric scaling [5]: 1.15 ± 0.4 h
- pKa of the strongest bases [6]: 9.19
- blood–brain barrier crossing [7]: can cross the blood–brain barrier
- stability in extract in the autosampler ([8]; QC1 (0.1 μg/L)): 94%
- stability in extract in the autosampler ([8]; QC3 (40 μg/L)): 110%
- stability after short-term storage at room temperature ([8]; QC1 (0.1 μg/L)): 103%
- stability after freeze–thaw cycles ([8]; QC1 (0.1 μg/L)): 108%
- stability after short-term storage at room temperature ([8]; QC3 (40 μg/L)): 107%
- stability after freeze–thaw cycles ([8]; QC3 (40 μg/L)): 104%
- EC50 (dopamine D2 receptor): 0.61 µg/mL (≈ 3.69 µM)
